In PubChem BioAssay AID256 (DTP/NCI, 2004):
Values joined by “and” are separate entries in the source; they are usually repeats but may differ in a detail not shown here. Identical values can stand only once. Inconclusive results and toxic doses are left out. Rule for the calls: active = survival T/C of 150% or more; inactive = T/C below 125% in these data.

Test system: CD2F1 mice, L1210 leukemia ip, survival T/C
Assay: NCI In Vivo Anticancer Drug Screen. Data for tumor model L1210 Leukemia (intraperitoneal) in CD2F1 (CDF1) mice
Details: higher = longer survival
In short: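 In this screen, transplantable tumors were grown in mice given either the compound or its vehicle. Results were expressed as the treated measurement relative to the control measurement.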

[1] = endpoint: mean survival time, dose: 100.0 mg/kg/injection, schedule: Q04DX003 (ip), vehicle: saline with Tween-80
[2] = endpoint: mean survival time, dose: 200.0 mg/kg/injection, schedule: Q04DX003 (ip), vehicle: saline with Tween-80
[3] = endpoint: mean survival time, dose: 400.0 mg/kg/injection, schedule: Q04DX003 (ip), vehicle: saline with Tween-80
[4] = endpoint: mean survival time, dose: 12.5 mg/kg/injection, schedule: Q01DX009 (ip), vehicle: saline
[5] = endpoint: mean survival time, dose: 25.0 mg/kg/injection, schedule: Q01DX009 (ip), vehicle: saline
[6] = endpoint: mean survival time, dose: 50.0 mg/kg/injection, schedule: Q01DX009 (ip), vehicle: saline
[7] = endpoint: mean survival time, dose: 100.0 mg/kg/injection, schedule: Q01DX009 (ip), vehicle: saline with Tween-80
[8] = endpoint: mean survival time, dose: 200.0 mg/kg/injection, schedule: Q01DX009 (ip), vehicle: saline with Tween-80
[9] = endpoint: mean survival time, dose: 100.0 mg/kg/injection, schedule: Q04DX002 (ip), vehicle: saline with Tween-80
[10] = endpoint: mean survival time, dose: 400.0 mg/kg/injection, schedule: Q01DX009 (ip), vehicle: saline with Tween-80

Measured: T/C

CN(Cc1cnc2nc(N)nc(N)c2n1)c1ccc(C(=O)NC(CCC(=O)O)C(=O)O)cc1Br (stereo not given)
inactive: endpoint: mean survival time, dose: 6.25 mg/kg/injection, schedule: Q01DX Z (ip), vehicle: saline 104 % of control

Cc1ccc(S(=O)(=O)OC2C(O)OCC3OC(C)(C)OC32)cc1 (stereo not given)
inactive: [1] 98 % of control | [2] 102 % of control | [3] 93 % of control

C[Si](C)(C)O/C=C1/CCOC1=O
inactive: [4] 97 % of control and 107 % of control | [5] 106 % of control and 108 % of control | [6] 103 % of control and 104 % of control | endpoint: mean survival time, dose: 100.0 mg/kg/injection, schedule: Q01DX009 (ip), vehicle: saline 104 % of control and 106 % of control | endpoint: mean survival time, dose: 200.0 mg/kg/injection, schedule: Q01DX009 (ip), vehicle: saline 105 % of control and 112 % of control | endpoint: mean survival time, dose: 400.0 mg/kg/injection, schedule: Q01DX009 (ip), vehicle: saline 113 % of control and 112 % of control

CC(=O)Nc1cccc([N+](=O)[O-])c1
inactive: endpoint: mean survival time, dose: 100.0 mg/kg/injection, schedule: Q04DX003 (ip), vehicle: Klucel (hydroxypropylcellulose) (HPC) 94 % of control | endpoint: mean survival time, dose: 200.0 mg/kg/injection, schedule: Q04DX003 (ip), vehicle: Klucel (hydroxypropylcellulose) (HPC) 97 % of control

CNc1ccn(C2OC(CO)C(O)C2O)c(=O)n1 (stereo not given)
inactive: endpoint: mean survival time, dose: 100.0 mg/kg/injection, schedule: Q01DX005 (ip), vehicle: distilled water + Tween-80 107 % of control | endpoint: mean survival time, dose: 200.0 mg/kg/injection, schedule: Q01DX005 (ip), vehicle: distilled water + Tween-80 104 % of control | endpoint: mean survival time, dose: 400.0 mg/kg/injection, schedule: Q01DX005 (ip), vehicle: distilled water + Tween-80 107 % of control

C[N+](C)(CCCCCCCCCC[N+](C)(C)CC(=O)c1ccccc1)CC(=O)c1ccccc1
inactive: endpoint: mean survival time, dose: 0.5 mg/kg/injection, schedule: Q04DX003 (ip), vehicle: saline 101 % of control | endpoint: mean survival time, dose: 1.0 mg/kg/injection, schedule: Q04DX003 (ip), vehicle: saline 94 % of control | endpoint: mean survival time, dose: 2.0 mg/kg/injection, schedule: Q04DX003 (ip), vehicle: saline 95 % of control

O=C(CC1CCCCN1)CC1CCCCN1 (stereo not given)
inactive: endpoint: median survival time, dose: 25.0 mg/kg/injection, schedule: Q04DX003 (ip), vehicle: saline 100 % of control | endpoint: median survival time, dose: 50.0 mg/kg/injection, schedule: Q04DX003 (ip), vehicle: saline 100 % of control | endpoint: median survival time, dose: 100.0 mg/kg/injection, schedule: Q04DX003 (ip), vehicle: saline 90 % of control | endpoint: median survival time, dose: 200.0 mg/kg/injection, schedule: Q04DX003 (ip), vehicle: saline 90 % of control

C#C[C@]1(O)CC[C@H]2[C@@H]3CCc4cc(O)ccc4[C@H]3CC[C@@]21C
inactive: endpoint: median survival time, dose: 31.2 mg/kg/injection, schedule: Q01DX009 (ip), vehicle: saline with Tween-80 106 % of control | endpoint: median survival time, dose: 62.5 mg/kg/injection, schedule: Q01DX009 (ip), vehicle: saline with Tween-80 97 % of control | endpoint: median survival time, dose: 125.0 mg/kg/injection, schedule: Q01DX009 (ip), vehicle: saline with Tween-80 97 % of control | endpoint: median survival time, dose: 250.0 mg/kg/injection, schedule: Q01DX009 (ip), vehicle: saline with Tween-80 101 % of control | endpoint: median survival time, dose: 500.0 mg/kg/injection, schedule: Q01DX009 (ip), vehicle: saline with Tween-80 104 % of control

O=CN(Cc1ccccc1)c1cc([N+](=O)[O-])ccc1OCc1ccccc1
inactive: endpoint: mean survival time, dose: 100.0 mg/kg/injection, schedule: Q01DX001 (ip), vehicle: saline 96 % of control | endpoint: mean survival time, dose: 200.0 mg/kg/injection, schedule: Q01DX001 (ip), vehicle: saline 94 % of control | endpoint: mean survival time, dose: 400.0 mg/kg/injection, schedule: Q01DX001 (ip), vehicle: saline 100 % of control

O=[N+]([O-])c1ccc(Sc2ccc(Cl)cc2)cc1
inactive: endpoint: mean survival time, dose: 100.0 mg/kg/injection, schedule: Q01DX001 (ip), vehicle: other 95 % of control | [7] 98 % of control | [1] 104 % of control | endpoint: mean survival time, dose: 200.0 mg/kg/injection, schedule: Q01DX001 (ip), vehicle: other 102 % of control | [8] 98 % of control | [2] 95 % of control | endpoint: mean survival time, dose: 400.0 mg/kg/injection, schedule: Q01DX001 (ip), vehicle: other 107 % of control | [3] 103 % of control

ClC1CCC[N-]C1.ClC1CCC[N-]C1.[Cl][Pt+2][Cl] (stereo not given)
inactive: endpoint: mean survival time, dose: 0.78 mg/kg/injection, schedule: Q01DX009 (ip), vehicle: saline 103 % of control | endpoint: mean survival time, dose: 1.56 mg/kg/injection, schedule: Q01DX009 (ip), vehicle: saline 94 % of control | endpoint: mean survival time, dose: 3.13 mg/kg/injection, schedule: Q01DX009 (ip), vehicle: saline 102 % of control | endpoint: mean survival time, dose: 6.25 mg/kg/injection, schedule: Q01DX009 (ip), vehicle: saline 96 % of control | [4] 89 % of control | endpoint: mean survival time, dose: 50.0 mg/kg/injection, schedule: Q01DX009 (ip), vehicle: saline with Tween-80 108 % of control | [7] 95 % of control

CCCC(C#CCN(C)C)N(C)C (stereo not given)
inactive: [4] 97 % of control | [5] 97 % of control | [6] 98 % of control

O=c1c(F)cn(-c2ccco2)c(=O)n1-c1ccco1
inactive: [2] 98 % of control | [3] 102 % of control

Clc1ccc(/C=N/N=C/c2ccc(Cl)cc2Cl)c(Cl)c1
inactive: endpoint: mean survival time, dose: 100.0 mg/kg/injection, schedule: Q01DX001 (ip), vehicle: Klucel (hydroxypropylcellulose) (HPC) 95 % of control | endpoint: mean survival time, dose: 200.0 mg/kg/injection, schedule: Q01DX001 (ip), vehicle: Klucel (hydroxypropylcellulose) (HPC) 89 % of control | endpoint: mean survival time, dose: 400.0 mg/kg/injection, schedule: Q01DX001 (ip), vehicle: Klucel (hydroxypropylcellulose) (HPC) 103 % of control

COC(=O)[CH](C[N+](=O)[O-])[Hg][Cl] (stereo not given)
inactive: endpoint: mean survival time, dose: 6.25 mg/kg/injection, schedule: Q01DX009 (ip), vehicle: saline with Tween-80 97 % of control | endpoint: mean survival time, dose: 12.5 mg/kg/injection, schedule: Q04DX003 (ip), vehicle: saline 94 % of control

ClC=C(c1ccc(Cl)cc1)c1ccc(Cl)cc1
inactive: [1] 97 % of control | [2] 97 % of control | [3] 101 % of control

CN(C)CC(C)(C)C(=O)c1ccc(Cl)cc1
inactive: endpoint: mean survival time, dose: 100.0 mg/kg/injection, schedule: Q04DX002 (ip), vehicle: saline 93 % of control | endpoint: mean survival time, dose: 200.0 mg/kg/injection, schedule: Q04DX002 (ip), vehicle: saline 89 % of control

NC(=S)NC(=S)Nc1ccc(Cl)cc1
inactive: endpoint: mean survival time, dose: 25.0 mg/kg/injection, schedule: Q04DX002 (ip), vehicle: saline with Tween-80 98 % of control | endpoint: mean survival time, dose: 50.0 mg/kg/injection, schedule: Q04DX002 (ip), vehicle: saline with Tween-80 98 % of control | [9] 98 % of control

C=C(CN(C)C)c1ccccn1
inactive: endpoint: mean survival time, dose: 75.0 mg/kg/injection, schedule: Q01DX001 (ip), vehicle: other 100 % of control

CC1=C2C3OC(=O)C(C)C3CCC2(C)C=CC1=O (stereo not given)
inactive: [9] 116 % of control | endpoint: mean survival time, dose: 200.0 mg/kg/injection, schedule: Q04DX002 (ip), vehicle: saline with Tween-80 116 % of control

O=C(CC(NC(=O)OCc1ccccc1)C(=O)OCc1ccccc1)OCc1ccccc1 (stereo not given)
inactive: [7] 106 % of control | [1] 92 % of control | [8] 98 % of control | [2] 91 % of control | [10] 97 % of control | [3] 92 % of control

Cc1cc(C)c(N2C(=O)CC(Sc3ccccc3N)C2=O)c(C)c1 (stereo not given)
inactive: [7] 92 % of control | [8] 96 % of control | [10] 94 % of control
